Targets include PIM2 (Homo sapiens, UniProt Q9P1W9); CLK2 (Homo sapiens, UniProt P49760); PRKCD (Homo sapiens, UniProt Q05655).
Common to all, as to experiment: biochemical
Common to all, as to design: KINOMEscan scanMAX competition binding, DNA-tagged kinases, qPCR read-out, percent control at 300 nM

The target in a further assay is T1, ITK (Homo sapiens, UniProt Q08881).
T1 sequence (Q08881 1-620): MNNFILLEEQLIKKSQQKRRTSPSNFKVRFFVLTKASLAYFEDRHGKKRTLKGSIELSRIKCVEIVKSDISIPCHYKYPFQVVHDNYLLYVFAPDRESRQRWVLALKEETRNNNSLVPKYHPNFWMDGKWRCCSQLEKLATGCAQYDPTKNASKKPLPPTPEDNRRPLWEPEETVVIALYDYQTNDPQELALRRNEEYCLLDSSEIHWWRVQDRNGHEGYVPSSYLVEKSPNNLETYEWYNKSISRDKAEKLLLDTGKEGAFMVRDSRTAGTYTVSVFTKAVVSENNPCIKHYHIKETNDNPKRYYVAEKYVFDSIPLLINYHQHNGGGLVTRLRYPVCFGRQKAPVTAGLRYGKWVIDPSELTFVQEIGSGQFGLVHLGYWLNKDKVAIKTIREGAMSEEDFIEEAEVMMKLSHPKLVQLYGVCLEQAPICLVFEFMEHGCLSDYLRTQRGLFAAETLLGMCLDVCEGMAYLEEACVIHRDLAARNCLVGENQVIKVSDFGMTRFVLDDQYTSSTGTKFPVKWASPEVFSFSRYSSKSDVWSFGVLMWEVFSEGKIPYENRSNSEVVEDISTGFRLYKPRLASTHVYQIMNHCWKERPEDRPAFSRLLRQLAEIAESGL

A further assay concerns the target T2, CDKL2 (Homo sapiens, UniProt Q92772).
T2 sequence (Q92772 1-493): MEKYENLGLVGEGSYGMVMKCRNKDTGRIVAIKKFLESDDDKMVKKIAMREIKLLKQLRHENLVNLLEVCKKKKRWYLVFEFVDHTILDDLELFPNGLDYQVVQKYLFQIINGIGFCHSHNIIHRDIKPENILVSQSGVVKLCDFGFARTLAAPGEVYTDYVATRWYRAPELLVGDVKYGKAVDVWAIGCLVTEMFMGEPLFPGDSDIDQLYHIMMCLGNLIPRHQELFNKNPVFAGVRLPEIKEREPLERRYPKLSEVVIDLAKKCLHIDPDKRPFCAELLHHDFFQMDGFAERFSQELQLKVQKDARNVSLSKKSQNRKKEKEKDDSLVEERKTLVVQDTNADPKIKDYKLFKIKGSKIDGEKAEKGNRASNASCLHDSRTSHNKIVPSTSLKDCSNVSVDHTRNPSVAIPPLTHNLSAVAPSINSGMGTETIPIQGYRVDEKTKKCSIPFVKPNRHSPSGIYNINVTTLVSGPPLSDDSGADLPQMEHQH

Another assay has as its target T3, PRKX (Homo sapiens, UniProt P51817).
T3 sequence (P51817 1-358): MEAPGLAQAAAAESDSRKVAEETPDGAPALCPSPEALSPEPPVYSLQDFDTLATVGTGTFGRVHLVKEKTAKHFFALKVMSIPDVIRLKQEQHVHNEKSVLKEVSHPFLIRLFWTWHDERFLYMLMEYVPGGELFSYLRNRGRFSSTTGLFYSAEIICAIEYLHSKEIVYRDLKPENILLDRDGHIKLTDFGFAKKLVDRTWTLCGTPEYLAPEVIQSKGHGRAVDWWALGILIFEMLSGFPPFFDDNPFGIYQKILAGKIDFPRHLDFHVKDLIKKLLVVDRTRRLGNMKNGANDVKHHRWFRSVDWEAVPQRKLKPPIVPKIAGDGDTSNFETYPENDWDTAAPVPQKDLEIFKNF

Another assay concerns the target T4, TYRO3 (Homo sapiens, UniProt Q06418).
T4 sequence (Q06418 1-890): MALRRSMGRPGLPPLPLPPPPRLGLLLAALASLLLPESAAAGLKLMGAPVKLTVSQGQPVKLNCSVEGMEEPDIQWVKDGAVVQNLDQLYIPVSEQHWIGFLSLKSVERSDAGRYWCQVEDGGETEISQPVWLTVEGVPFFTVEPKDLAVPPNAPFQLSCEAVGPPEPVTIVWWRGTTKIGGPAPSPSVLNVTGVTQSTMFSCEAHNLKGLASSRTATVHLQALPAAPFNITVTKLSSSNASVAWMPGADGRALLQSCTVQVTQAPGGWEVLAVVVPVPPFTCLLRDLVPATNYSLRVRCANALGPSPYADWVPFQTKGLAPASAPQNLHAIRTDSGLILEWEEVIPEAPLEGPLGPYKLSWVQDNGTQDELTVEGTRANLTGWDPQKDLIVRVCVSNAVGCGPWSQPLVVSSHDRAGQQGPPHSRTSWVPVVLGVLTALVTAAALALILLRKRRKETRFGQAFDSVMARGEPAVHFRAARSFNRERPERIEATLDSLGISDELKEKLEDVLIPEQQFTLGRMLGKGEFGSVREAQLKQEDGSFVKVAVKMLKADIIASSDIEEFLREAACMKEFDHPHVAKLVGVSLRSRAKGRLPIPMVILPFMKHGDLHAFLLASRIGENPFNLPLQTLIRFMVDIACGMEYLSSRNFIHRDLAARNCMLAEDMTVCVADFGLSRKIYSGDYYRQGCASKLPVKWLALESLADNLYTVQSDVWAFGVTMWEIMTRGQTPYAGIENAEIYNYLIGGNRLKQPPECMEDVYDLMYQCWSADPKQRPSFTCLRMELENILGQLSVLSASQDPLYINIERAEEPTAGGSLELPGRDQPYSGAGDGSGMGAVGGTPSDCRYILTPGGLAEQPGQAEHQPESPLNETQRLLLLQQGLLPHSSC

[1] abbreviates: read-out: Percent control / Tirabrutinib.
Setting [2] is: read-out: Percent control / Acalabrutinib.
Where [3] appears, read: read-out: Percent control / Ibrutinib.
[4] abbreviates: read-out: Percent control / Zanubrutinib.

Like-named read-outs stand apart in the source and are kept apart here.

CLK2, sequence (P49760 whole entry): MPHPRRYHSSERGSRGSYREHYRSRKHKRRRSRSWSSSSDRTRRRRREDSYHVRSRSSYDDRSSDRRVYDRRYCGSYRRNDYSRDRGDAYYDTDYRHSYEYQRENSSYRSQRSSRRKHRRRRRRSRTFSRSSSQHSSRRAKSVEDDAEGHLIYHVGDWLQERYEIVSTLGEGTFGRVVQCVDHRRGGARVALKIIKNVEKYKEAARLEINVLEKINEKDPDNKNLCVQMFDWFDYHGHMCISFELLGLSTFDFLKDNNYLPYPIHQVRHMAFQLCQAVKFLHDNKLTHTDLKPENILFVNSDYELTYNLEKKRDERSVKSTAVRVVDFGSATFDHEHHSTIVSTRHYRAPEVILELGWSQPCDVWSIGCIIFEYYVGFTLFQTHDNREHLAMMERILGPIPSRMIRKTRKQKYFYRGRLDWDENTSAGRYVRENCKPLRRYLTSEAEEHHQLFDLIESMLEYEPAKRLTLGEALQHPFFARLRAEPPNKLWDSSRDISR
PRKCD, sequence (Q05655 whole entry): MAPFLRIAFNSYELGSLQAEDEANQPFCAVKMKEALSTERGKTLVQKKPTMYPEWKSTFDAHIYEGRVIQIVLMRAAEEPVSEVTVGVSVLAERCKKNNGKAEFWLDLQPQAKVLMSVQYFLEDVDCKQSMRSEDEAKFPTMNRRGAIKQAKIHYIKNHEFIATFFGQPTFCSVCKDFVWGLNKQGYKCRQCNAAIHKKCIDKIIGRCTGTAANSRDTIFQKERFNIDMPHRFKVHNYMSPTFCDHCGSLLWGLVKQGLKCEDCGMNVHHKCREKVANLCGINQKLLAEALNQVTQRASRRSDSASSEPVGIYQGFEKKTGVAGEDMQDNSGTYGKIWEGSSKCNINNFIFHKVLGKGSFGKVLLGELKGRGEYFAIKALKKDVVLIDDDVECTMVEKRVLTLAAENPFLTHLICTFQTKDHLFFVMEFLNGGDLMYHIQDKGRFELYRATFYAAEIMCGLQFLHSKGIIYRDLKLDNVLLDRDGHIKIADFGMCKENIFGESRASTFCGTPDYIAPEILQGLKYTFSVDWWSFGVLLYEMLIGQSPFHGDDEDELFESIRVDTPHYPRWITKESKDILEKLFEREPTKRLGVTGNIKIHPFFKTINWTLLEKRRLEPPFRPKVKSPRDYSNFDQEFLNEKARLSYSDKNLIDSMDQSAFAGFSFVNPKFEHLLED
PIM2, sequence (Q9P1W9 whole entry): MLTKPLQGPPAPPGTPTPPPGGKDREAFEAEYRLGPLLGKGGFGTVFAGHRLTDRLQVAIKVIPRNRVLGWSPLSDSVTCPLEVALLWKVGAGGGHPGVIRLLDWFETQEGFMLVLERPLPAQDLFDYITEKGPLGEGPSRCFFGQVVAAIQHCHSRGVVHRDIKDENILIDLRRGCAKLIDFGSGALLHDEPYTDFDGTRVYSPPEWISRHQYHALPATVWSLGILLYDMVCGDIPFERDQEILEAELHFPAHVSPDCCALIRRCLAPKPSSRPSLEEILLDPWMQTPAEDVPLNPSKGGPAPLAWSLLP

On to `CC#CC(=O)N1CC[C@@H](n2c(=O)n(-c3ccc(Oc4ccccc4)cc3)c3c(N)ncnc32)C1` [Tirabrutinib], for which the remaining binding at 0.3 µM on ITK (setting [1]) turned out to be 99%; at PIM2 (setting [1]), 99%; on CDKL2 (setting [1]) it was 84%; on CLK2 (setting [1]), 94%; at PRKX (setting [1]), 87%; on PRKCD (setting [1]), 90%. In addition, the remaining binding at 0.3 µM on TYRO3 (setting [1]) is 99%.

For the compound `CC#CC(=O)N1CCC[C@H]1c1nc(-c2ccc(C(=O)Nc3ccccn3)cc2)c2c(N)nccn12` [Acalabrutinib], the remaining binding at 0.3 µM was 97% at ITK (setting [2]), 99% at CLK2 (setting [2]) and 81% on PRKX (setting [2]).

Consider `C=CC(=O)N1CCC[C@@H](n2nc(-c3ccc(Oc4ccccc4)cc3)c3c(N)ncnc32)C1` [Ibrutinib], for which the remaining binding at 0.3 µM amounted to 27% on ITK (setting [3]); 96% on PIM2 (setting [3]); 99% on CDKL2 (setting [3]); 75% on PRKX (setting [3]); 90% on PRKCD (setting [3]); 61% at TYRO3 (setting [3]).

Take `C=CC(=O)N1CCC([C@@H]2CCNc3c(C(N)=O)c(-c4ccc(Oc5ccccc5)cc4)nn32)CC1` [Zanubrutinib]: the remaining binding at 0.3 µM turned out to be 97% at ITK (setting [4]); 96% on PIM2 (setting [4]); 100% on CDKL2 (setting [4]); 87% on CLK2 (setting [4]); 96% at PRKX (setting [4]); 83% at PRKCD (setting [4]). For the same compound, the remaining binding at 0.3 µM at TYRO3 (setting [4]) was 80%.

The values are drawn from PMC10004634 (PLOS ONE, 2023).
